In brackets after ≈: the same amount, converted by molar mass. Positions of bridges follow the written chain, without caps; N, C: chain ends. Non-standard residues stand in square brackets, D forms with d. Residues, ends and D or L forms follow the SMILES beside them. Phe(4-CF3) = N[C@@H](Cc1ccc(C(F)(F)F)cc1)C(=O)O; PEG4 = NCCOCCOCCOCCOCCC(=O)O; S5 = C=CCCC[C@](C)(N)C(=O)O
Columns and labels:
E. coli = assay type: cell-based, Escherichia coli
Procedure, shortened: (§1)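 MIC by CLSI-adapted microbroth dilution; MHB or MHB II; inoculum 5×10^5 CFU/ml final; 20-24 h, 37 °C; endpoint = no visible growth.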

A. baumannii = assay type: cell-based, Acinetobacter baumannii
Procedure, shortened: as §1

P. aeruginosa = assay type: cell-based, Pseudomonas aeruginosa
Procedure, shortened: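 MIC taken as lowest peptide concentration with no visible growth after 20-24 h at 37 °C. Peptide serial dilutions from water stocks met P. aeruginosa inoculum (5×10^5 CFU/ml final) in MHB or MHB II, per a CLSI-adapted microbroth protocol.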

K. pneumoniae = assay type: cell-based, Klebsiella pneumoniae
Procedure, shortened: as §1

S. aureus = assay type: cell-based, Staphylococcus aureus
Procedure, shortened: as §1

in vitro [1] = assay type: cell-based; details: human
Procedure, shortened: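 LDH release (absorbance at 490 nm) measured in the media of cells treated with serially diluted StAMPs or vehicle at 37 °C: 90 min for renal RPTEC, 48 h for liver HepG2. Cells were seeded overnight beforehand and media refreshed before dosing.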

in vitro [2] = assay type: cell-based; details: human, Inhibitory Concentration at 50% Cytotoxicity (IC50) Human Liver Cells (HepG2)
Procedure, shortened: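 Cytotoxicity read by CellTiter-Glo luminescence after 48 h at 37 °C exposure to serially diluted StAMPs or vehicle. HepG2 cells were grown in EMEM plus 10% FBS and given 4 h to attach before dosing; peptides came from a 5 mg/mL aqueous stock.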

Row | Structure (SMILES) | Minimum Inhibitory Concentration (MIC) E. coli (E. coli) | Minimum Inhibitory Concentration (MIC) A. baumannii (A. baumannii) | Minimum Inhibitory Concentration (MIC) P. aeruginosa (P. aeruginosa) | Minimum Inhibitory Concentration (MIC) K. pneumoniae (K. pneumoniae) | Minimum Inhibitory Concentration (MIC) S. aureus (S. aureus) | IC50 at 90 min (in vitro [1]) | IC50 at 48 hours (in vitro [2])
1 | CC(C)[C@@H]1NC(=O)[C@@](C)(NC(=O)[C@H](C)NC(=O)[C@H](CCCCN)NC(=O)CNC(=O)[C@H](Cc2ccccc2)NC(=O)[C@H](CCCCN)NC(=O)[C@H](CCCCN)NC(=O)[C@H](CCCCN)NC(=O)[C@H](CCCCN)NC(=O)[C@H](CCCCN)NC(=O)[C@]2(C)CCCC=CCCC[C@](C)(NC(=O)CN)C(=O)NCC(=O)N[C@@H](CCCCN)C(=O)N[C@@H](Cc3ccccc3)C(=O)N2)CCCC=CCCC[C@@](C)(C(=O)N[C@@H](C)C(=O)N[C@@H](CCCCN)C(=O)N[C@@H](CCCCN)C(=O)NCC(=O)NCC(=O)N[C@@H](CCC(=O)O)C(N)=O)NC(=O)[C@H](CCC(=O)O)NC(=O)[C@H](Cc2ccc(C(F)(F)F)cc2)NC1=O [compound 35] (H-G[S5]GKF[S5]KKKKKFGKA[S5]V[Phe(4-CF3)]E[S5]AKKGGE-NH2; staple 2-6, 16-20) | 2 µg/mL | 2 µg/mL | 2 µg/mL | 2 µg/mL | 64 µg/mL | ~200 µg/mL (≈ 67.4 µM) | > 200 µg/mL
2 | CC(C)[C@@H]1NC(=O)[C@@](C)(NC(=O)[C@H](C)NC(=O)[C@H](CCCCN)NC(=O)CNC(=O)[C@H](Cc2ccccc2)NC(=O)[C@H](CCCCN)NC(=O)[C@H](CCCCN)NC(=O)[C@H](CCCCN)NC(=O)[C@H](CO)NC(=O)[C@H](CCCCN)NC(=O)[C@]2(C)CCCC=CCCC[C@](C)(NC(=O)CN)C(=O)NCC(=O)N[C@@H](CCCCN)C(=O)N[C@@H](Cc3ccccc3)C(=O)N2)CCCC=CCCC[C@@](C)(C(=O)N[C@@H](C)C(=O)N[C@@H](CCCCN)C(=O)N[C@@H](CCCCN)C(N)=O)NC(=O)[C@H](CCC(=O)O)NC(=O)[C@H](Cc2ccccc2)NC1=O [compound 20] (H-G[S5]GKF[S5]KSKKKFGKA[S5]VFE[S5]AKK-NH2; staple 2-6, 16-20) | 2 µg/mL | 2 µg/mL | 2 µg/mL | 2 µg/mL | 64 µg/mL | 70 µg/mL (≈ 26.8 µM) | 105 µg/mL (≈ 40.2 µM)
3 | CC(C)[C@@H]1NC(=O)[C@@](C)(NC(=O)[C@H](C)NC(=O)[C@H](CCCCN)NC(=O)CNC(=O)[C@H](Cc2ccccc2)NC(=O)[C@H](CCCCN)NC(=O)[C@H](CCCCN)NC(=O)[C@H](CCCCN)NC(=O)[C@H](CCCCN)NC(=O)[C@H](CCCCN)NC(=O)[C@]2(C)CCCC=CCCC[C@](C)(NC(=O)CN)C(=O)NCC(=O)N[C@@H](CCCCN)C(=O)N[C@@H](Cc3ccccc3)C(=O)N2)CCCC=CCCC[C@@](C)(C(=O)N[C@@H](C)C(=O)N[C@@H](CCCCN)C(=O)N[C@@H](CCCCN)C(=O)NCCOCCOCCOCCOCCC(N)=O)NC(=O)[C@H](CCC(=O)O)NC(=O)CNC1=O [compound 74] (H-G[S5]GKF[S5]KKKKKFGKA[S5]VGE[S5]AKK[PEG4]-NH2; staple 2-6, 16-20) | 2 µg/mL | 2 µg/mL | 4 µg/mL | 4 µg/mL | >64 µg/mL | > 200 µg/mL | 430 µg/mL (≈ 153 µM)

The next lines start with results.

Row | Minimum Inhibitory Concentration (MIC) E. coli (E. coli) | Minimum Inhibitory Concentration (MIC) A. baumannii (A. baumannii) | Minimum Inhibitory Concentration (MIC) P. aeruginosa (P. aeruginosa) | Minimum Inhibitory Concentration (MIC) K. pneumoniae (K. pneumoniae) | Minimum Inhibitory Concentration (MIC) S. aureus (S. aureus) | IC50 at 90 min (in vitro [1]) | Structure (SMILES) | IC50 at 48 hours (in vitro [2])
4 | 4 µg/mL | 4 µg/mL | 8 µg/mL | 32 µg/mL | 16 µg/mL | > 200 µg/mL | C[C@H](NC(=O)[C@H](CCCCN)NC(=O)CNC(=O)[C@H](Cc1ccccc1)NC(=O)[C@H](CCCCN)NC(=O)[C@H](CCCCN)NC(=O)[C@H](CCCCN)NC(=O)[C@H](CO)NC(=O)[C@H](Cc1c[nH]cn1)NC(=O)[C@]1(C)CCCC=CCCC[C@](C)(NC(=O)CN)C(=O)NCC(=O)N[C@@H](CCCCN)C(=O)N[C@@H](Cc2ccccc2)C(=O)N1)C(=O)N[C@@]1(C)CCCC=CCCC[C@@](C)(C(=O)N[C@@H](C)C(=O)N[C@@H](CCCCN)C(=O)N[C@@H](CCCCN)C(N)=O)NC(=O)[C@H](CCC(=O)O)NC(=O)CNC(=O)[C@H](Cc2c[nH]c3ccccc23)NC1=O [compound 64] (H-G[S5]GKF[S5]HSKKKFGKA[S5]WGE[S5]AKK-NH2; staple 2-6, 16-20) | > 200 µg/mL
5 | 8 µg/mL | 4 µg/mL | 8 µg/mL | 64 µg/mL | >64 µg/mL | 150 µg/mL (≈ 57 µM) | CC(C)[C@@H]1NC(=O)[C@@](C)(NC(=O)[C@H](C)NC(=O)[C@H](CCCCN)NC(=O)CNC(=O)[C@H](Cc2ccccc2)NC(=O)[C@H](CCCCN)NC(=O)[C@H](CCCCN)NC(=O)[C@H](CCCCN)NC(=O)[C@H](Cc2c[nH]c3ccccc23)NC(=O)[C@H](Cc2c[nH]cn2)NC(=O)[C@]2(C)CCCC=CCCC[C@](C)(NC(=O)CN)C(=O)NCC(=O)N[C@@H](CCCCN)C(=O)N[C@@H](Cc3ccccc3)C(=O)N2)CCCC=CCCC[C@@](C)(C(=O)N[C@@H](C)C(=O)N[C@@H](CCCCN)C(=O)N[C@@H](CCCCN)C(N)=O)NC(=O)[C@H](CCC(=O)O)NC(=O)CNC1=O [compound 61] (H-G[S5]GKF[S5]HWKKKFGKA[S5]VGE[S5]AKK-NH2; staple 2-6, 16-20) | > 200 µg/mL
6 | 6 µg/mL | 4 µg/mL | 8 µg/mL | >64 µg/mL | >64 µg/mL | > 200 µg/mL | CC(C)[C@@H]1NC(=O)[C@@](C)(NC(=O)[C@H](C)NC(=O)[C@H](CCCCN)NC(=O)CNC(=O)[C@H](Cc2ccccc2)NC(=O)[C@H](CCCCN)NC(=O)[C@H](CCCCN)NC(=O)[C@H](CCCCN)NC(=O)[C@H](CCC(N)=O)NC(=O)[C@H](Cc2c[nH]cn2)NC(=O)[C@]2(C)CCCC=CCCC[C@](C)(NC(=O)CN)C(=O)NCC(=O)N[C@@H](CCCCN)C(=O)N[C@@H](Cc3ccccc3)C(=O)N2)CCCC=CCCC[C@@](C)(C(=O)N[C@@H](C)C(=O)N[C@@H](CCCCN)C(=O)N[C@@H](CCCCN)C(N)=O)NC(=O)[C@H](CCC(=O)O)NC(=O)CNC1=O [compound 7] (H-G[S5]GKF[S5]HQKKKFGKA[S5]VGE[S5]AKK-NH2; staple 2-6, 16-20) | > 200 µg/mL
